Assay [1] concerns the target T1, SPT (SPT2-expressing membrane fraction: human SPT1, human SPT2 and human ssSPTa) (Homo sapiens, UniProt O15269+O15270).
T1 construct: Full-length human SPT1, human SPT2 and human ssSPTa used; made in house; host or cells: FreeStyle 293 cells (pcDNA3.1 vectors, cotransfection); crude membrane fraction used
T1 sequence (O15269 1-473): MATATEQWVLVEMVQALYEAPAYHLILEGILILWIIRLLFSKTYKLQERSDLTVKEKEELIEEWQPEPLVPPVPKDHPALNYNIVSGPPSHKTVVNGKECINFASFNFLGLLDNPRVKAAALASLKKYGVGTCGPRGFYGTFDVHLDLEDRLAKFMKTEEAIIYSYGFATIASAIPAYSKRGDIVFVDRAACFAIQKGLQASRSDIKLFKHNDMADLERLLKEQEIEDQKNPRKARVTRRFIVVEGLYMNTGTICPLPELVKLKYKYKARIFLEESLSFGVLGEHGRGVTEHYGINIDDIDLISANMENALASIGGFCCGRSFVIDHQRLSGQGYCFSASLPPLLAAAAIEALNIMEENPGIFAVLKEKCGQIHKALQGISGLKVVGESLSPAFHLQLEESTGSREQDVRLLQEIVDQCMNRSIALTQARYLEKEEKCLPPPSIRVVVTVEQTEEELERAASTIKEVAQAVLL
T1 sequence (O15270 1-562): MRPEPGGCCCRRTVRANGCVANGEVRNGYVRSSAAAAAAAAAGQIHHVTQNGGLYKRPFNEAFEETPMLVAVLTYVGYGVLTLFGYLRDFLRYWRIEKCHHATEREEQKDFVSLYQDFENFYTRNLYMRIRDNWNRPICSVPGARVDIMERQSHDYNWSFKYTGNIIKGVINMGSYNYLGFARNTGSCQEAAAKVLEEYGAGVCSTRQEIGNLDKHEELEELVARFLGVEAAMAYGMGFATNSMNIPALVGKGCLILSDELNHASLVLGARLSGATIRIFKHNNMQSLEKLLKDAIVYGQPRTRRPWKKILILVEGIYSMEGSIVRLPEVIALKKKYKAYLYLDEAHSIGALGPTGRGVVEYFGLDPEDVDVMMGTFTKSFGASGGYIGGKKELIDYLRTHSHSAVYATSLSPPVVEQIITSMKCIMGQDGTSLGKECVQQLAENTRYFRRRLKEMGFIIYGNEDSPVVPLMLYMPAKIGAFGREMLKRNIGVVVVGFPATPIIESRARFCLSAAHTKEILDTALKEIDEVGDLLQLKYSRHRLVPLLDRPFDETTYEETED
T1 sequence (Q969W0 1-71 partner): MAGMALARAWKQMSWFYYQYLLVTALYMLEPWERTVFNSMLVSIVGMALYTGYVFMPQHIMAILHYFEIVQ
Nature of the assay: SPT enzyme inhibition test (Test Example 1). It counts as biochemical. The conditions noted are these: read-out: Rate of inhibition (%) at 1 μM. Here is the method:
After culture for 3 days, the cells were recovered and frozen at −80° C. to obtain expressing cells. The frozen cells were suspended in a 50 mM Hepes buffer (pH 7.5) containing 250 mM sucrose, 5 mM ethylenediaminetetraacetic acid (EDTA), 5 mM dithiothreitol (DTT) and Complete, EDTA-free (Roche Applied Science, Penzberg, Upper Bavaria, Germany). The cells were disrupted (on ice, 20,000 rpm, 20 sec×2) using POLYTORON (Central Scientific Commerce, Inc.). After centrifugation at 2000 rpm (850×g) for 10 minutes, the supernatant was recovered. Subsequently, the supernatant was centrifuged at 40,000 rpm (186,010×g) for 60 minutes, and the supernatant was discarded. The pellets were suspended in a 50 mM Hepes buffer (pH 7.5) containing 5 mM EDTA, 5 mM DTT and Complete, EDTA-free, passed through a 40-μm cell strainer and stored at −80° C. The resultant was used as a SPT2-expressing membrane fraction. The protein concentration was determined using CBB Protein Assay with bovine serum albumin used as standards.
5 μL of each test compound was mixed with 10 μL of the 100 μg/mL SPT2-expressing membrane fraction using an assay buffer (100 mM Hepes (pH 8.0) containing 2.5 mM EDTA, 5 mM DTT and 0.01% fatty acid-free bovine serum albumin), and the mixture was left standing at room temperature for 60 minutes. Subsequently, 5 μL of a substrate solution containing 2 mM L-serine and 20 μM palmitoyl CoA was added thereto, and an enzyme reaction was carried out in a 384-well plate using 20 μL in total of the reaction system. After reaction at room temperature for 15 minutes, the reaction was terminated by the addition of 20 μL of a 2% aqueous formic acid solution. Subsequently, 40 μL of acetonitrile containing 600 nM C17-sphinganine (Avanti Polar Lipids, Inc., Alabaster, Ala., U.S.) was added thereto as an internal standard. The reaction sample was subjected to on-line solid-layer extraction using RapidFire 300 (Agilent Technologies Inc., Santa Clara, Calif., U.S.). […] Mass chromatograms were obtained using Analyst software (version 1.5.0, AB SCIEX). Their mass chromatogram areas were respectively calculated, and the rate of inhibition (%) by the test compound was calculated using an area ratio (the value of the reaction product was divided by the value of the internal standard).

Assay [2] deals with lung adenocarcinoma cell line HCC4006. The experiment in a line: HCC4006 cell growth inhibition test (Test Example 2). Type of assay: cell-based. Particulars: Homo sapiens, 120 h; 1 μM test compound; HCC4006 cells, culture for 5 days, CellTiter-Glo; read-out: Rate of inhibition (%) at 1 μM. Here is the method:
A lung adenocarcinoma cell line HCC4006 (ATCC) was cultured using an RPMI-1640 medium (Wako Pure Chemical Industries, Ltd.) containing 10% fetal bovine serum and penicillin/streptomycin. 250 cells per well were inoculated into 40 μL of a medium in a 384-well culture plate. On the next day, 10 μL of each test compound was added to the cells. After culture for 5 days, the medium was discarded, and 30 μL of CellTiter-Glo Luminescent Cell Viability Assay solution (Promega Corp., Fitchburg, Wis., U.S.) was added to each well. Light emission signals were measured using EnVision (PerkinElmer, Inc., Waltham, Mass., U.S.).
The rate of inhibition (%) by the test compound was calculated according to the following expression: Rate of inhibition (%)=(1−(Count of the test compound−Blank)/(Control−Blank))×100
In the above expression, a count under compound non-addition conditions was indicated as a control, and a count under cell-free conditions was indicated as a blank.

Consider `COc1cc(C(=O)N2CC[C@@H](NC(=O)c3ccccc3OC(F)(F)F)[C@@H](c3ccccc3)C2)cnc1OC` [Example 70B, N-((3S,4R)-1-((5,6-dimethoxypyridin-3-yl)carbonyl)-3-phenylpiperidin-4-yl)-2-(trifluoromethoxy)benzamide], for which the inhibition at 1 µM in assay [1] is 100%; in assay [2], 56%.
The matching figures for `Cc1cc(C(=O)N2CC[C@@H](NC(=O)c3ncccc3C(F)(F)F)[C@@H](c3ccccc3)C2)cc2nccnc12` [Example 74B, N-((3S,4R)-1-((8-Methylquinoxalin-6-yl)carbonyl)-3-phenylpiperidin-4-yl)-3-(trifluoromethyl)pyridine-2-carboxamide]: 100% and 45%.
The matching figures for `COc1cc(C(=O)N2CCC(NC(=O)c3ccccc3Cl)c3c2cnn3C)cnc1OC` (stereo not drawn) [Example 80A, 2-chloro-N-(4-((5,6-dimethoxypyridin-3-yl)carbonyl)-1-methyl-4,5,6,7-tetrahydro-1H-pyrazolo[4,3-b]pyridin-7-yl)benzamide]: 99% and 44%.
Take `COc1ncc(C(=O)N2CCC(NC(=O)c3ccccc3Cl)c3c2cnn3C)cc1Cl` (stereo not drawn) [Example 84A, 2-chloro-N-(4-((5-chloro-6-methoxypyridin-3-yl)carbonyl)-1-methyl-4,5,6,7-tetrahydro-1H-pyrazolo[4,3-b]pyridin-7-yl)benzamide]: the inhibition at 1 µM turned out to be 98% in assay [1] and 32% in assay [2].
Taken in the same sequence, the figures for `COc1ncc(C(=O)N2CCC(NC(=O)c3ccccc3C(F)(F)F)c3c2cnn3C)cc1Cl` (stereo not drawn) [Example 85A, N-(4-((5-chloro-6-methoxypyridin-3-yl)carbonyl)-1-methyl-4,5,6,7-tetrahydro-1H-pyrazolo[4,3-b]pyridin-7-yl)-2-(trifluoromethyl)benzamide] were 99% and 39%.
As for `Cn1nc(C(F)(F)F)cc1C(=O)N[C@@H]1CCN(C(=O)c2cc(Cl)c3nccnc3c2)C[C@@H]1c1ccc(F)cc1` [Example 96B, N-((3S,4R)-1-((8-chloroquinoxalin-6-yl)carbonyl)-3-(4-fluorophenyl)piperidin-4-yl)-1-methyl-3-(trifluoromethyl)-1H-pyrazole-5-carboxamide], the inhibition at 1 µM came to 102% in assay [1] and 49% in assay [2].
Taken in the same sequence, the figures for `COc1ccc(C(=O)N2CCC(NC(=O)c3ncccc3C(F)(F)F)c3c2cnn3C)cc1OC` (stereo not drawn) [Example 100A, N-(4-(3,4-dimethoxybenzoyl)-1-methyl-4,5,6,7-tetrahydro-1H-pyrazolo[4,3-b]pyridin-7-yl)-3-(trifluoromethyl)pyridine-2-carboxamide] were 97% and 39%.
Taken in the same sequence, the figures for `CS(=O)(=O)c1ccc(C(=O)N2CC[C@@H](NC(=O)c3ccccc3OC(F)(F)F)[C@@H](c3ccccc3)C2)cc1Cl` [Example 102B, N-((3S,4R)-1-(3-chloro-4-(methylsulfonyl)benzoyl)-3-phenylpiperidin-4-yl)-2-(trifluoromethoxy)benzamide] were 100% and 46%.
With `Cn1cnc2ccc(C(=O)N3CC[C@@H](NC(=O)c4ccccc4OC(F)(F)F)[C@@H](c4ccccc4)C3)cc21` [Example 104B, N-((3S,4R)-1-((1-methyl-1H-benzimidazol-6-yl)carbonyl)-3-phenylpiperidin-4-yl)-2-(trifluoromethoxy)benzamide], the inhibition at 1 µM was determined as 101% in assay [1] and 53% in assay [2].
`COc1ncc(C(=O)N2CCC(NC(=O)c3ccc(Cl)cc3C(F)(F)F)c3c2cnn3CC(F)F)cc1Cl` (stereo not drawn) [Example 126A, 4-Chloro-N-(4-((5-chloro-6-methoxypyridin-3-yl)carbonyl)-1-(2,2-difluoroethyl)-4,5,6,7-tetrahydro-1H-pyrazolo[4,3-b]pyridin-7-yl)-2-(trifluoromethyl)benzamide]: the inhibition at 1 µM in assay [1] amounted to 101%; in assay [2], 45%.
Take `Cn1ncc(C(=O)N[C@@H]2CCN(C(=O)c3ccc4nccnc4c3)C[C@@H]2c2ccccc2)c1Cl` [Example 132B, 5-chloro-1-methyl-N-((3S,4R)-3-phenyl-1-(quinoxalin-6-ylcarbonyl)piperidin-4-yl)-1H-pyrazole-4-carboxamide]: the inhibition at 1 µM stood at 98% in assay [1] and 45% in assay [2].
Regarding `COc1cc(C(=O)N2CCC(NC(=O)c3ccccc3OC(F)(F)F)c3c2cnn3C)cnc1OC` (stereo not drawn) [Example 133A, N-(4-((5,6-Dimethoxypyridin-3-yl)carbonyl)-1-methyl-4,5,6,7-tetrahydro-1H-pyrazolo[4,3-b]pyridin-7-yl)-2-(trifluoromethoxy)benzamide], the inhibition at 1 µM in assay [1] turned out to be 101%; in assay [2], 50%.
Taken in the same sequence, the figures for `COc1cc(C(=O)N2CC[C@@H](NC(=O)c3cnccc3C(F)(F)F)[C@@H](c3ccccc3)C2)cnc1OC` [Example 139B, N-((3S,4R)-1-((5,6-dimethoxypyridin-3-yl)carbonyl)-3-phenylpiperidin-4-yl)-4-(trifluoromethyl)nicotinamide] were 100% and 52%.
The matching figures for `COc1cc(C(=O)N2CC[C@@H](NC(=O)c3cccnc3C(F)(F)F)[C@@H](c3ccccc3)C2)cnc1OC` [Example 140B, N-((3S,4R)-1-((5,6-dimethoxypyridin-3-yl)carbonyl)-3-phenylpiperidin-4-yl)-2-(trifluoromethyl)nicotinamide]: 101% and 49%.
Taken in the same sequence, the figures for `COc1cc(C(=O)N2CC[C@@H](NC(=O)c3ccccc3S(C)(=O)=O)[C@@H](c3ccccc3)C2)cnc1OC` [Example 141B, N-((3S,4R)-1-((5,6-dimethoxypyridin-3-yl)carbonyl)-3-phenylpiperidin-4-yl)-2-(methylsulfonyl)benzamide] were 101% and 52%.

These data come from patent US10189785B2, “Heterocyclic compound” (TAKEDA PHARMACEUTICAL COMPANY LIMITED, priority 2015, dated 2019).
